Measured values taken from ChEMBL document CHEMBL4616725, “Global PROTAC Toolbox for Degrading BCR-ABL Overcomes Drug-Resistant Mutants and Adverse Effects” (J Med Chem, 2020).
pEC50, pIC50: −log10 of the molar value. Active and inactive are the calls of the source. No cut-off for these calls is given here.

Experiments:
[1] = system: Protein cereblon/Tyrosine-protein kinase ABL1/Breakpoint cluster region protein (Homo sapiens), P00519+P11274+Q96SW2 [T315I]; assay: Protac activity at Cereblon/BCR/ABL T315I mutant (unknown origin) expressed in mouse BaF3 cells assessed as reduction in BCR-ABL T315I mutant protein levels at 3 to 30000 nM incubated for 48 hrs by Western blot analysis; format: cell-based
K562 = assay: Antiproliferative activity against human K562 cells incubated for 3 days by CCK8 assay; format: functional, cell-based; details: K562, 72 h
BaF3 = assay: Antiproliferative activity against wild type mouse BA/F3 cells incubated for 3 days by CCK8 assay; format: cell-based; details: BaF3, 72 h
[2] = biological target: Protein cereblon/Tyrosine-protein kinase ABL1/Breakpoint cluster region protein (Homo sapiens, UniProt P00519+P11274+Q96SW2, T315I); format: cell-based, BaF3
[3] = biological target: Protein cereblon/Tyrosine-protein kinase ABL1/Breakpoint cluster region protein (Homo sapiens, UniProt P00519+P11274+Q96SW2); assay: Protac activity at Cereblon/BCR/ABL in human K562 cells assessed as induction of BCR-ABL degradation incubated for 32 to 48 hrs by Western blot analysis; format: cell-based
[4] = system: Protein cereblon/Tyrosine-protein kinase ABL1/Breakpoint cluster region protein (Homo sapiens), P00519+P11274+Q96SW2 [T315I]; assay: Protac activity at Cereblon/BCR/ABL T315I mutant (unknown origin) expressed in mouse BaF3 cells assessed as reduction in BCR-ABL T315I mutant protein levels at 1 uM incubated for 48 hrs by Western blot analysis; format: cell-based
HUVEC [5] = assay: Toxicity in HUVEC assessed as inhibition of tube formation at 200 nM incubated for 20 hrs by optical microscopy based matrigel-based assay; format: cell-based; details: human, 0.2 µM
H9c2 = assay: Antiproliferative activity against rat H9C2 cells incubated for 3 days by CCK8 assay; format: cell-based; details: H9c2, 72 h
HUVEC [6] = assay: Antiproliferative activity against human HUVEC incubated for 3 days by CCK8 assay; format: cell-based; details: 72 h
[7] = system: Protein cereblon/Tyrosine-protein kinase ABL1/Breakpoint cluster region protein (Homo sapiens), P00519+P11274+Q96SW2 [T315I]; assay: Protac activity at Cereblon/BCR/ABL T315I mutant (unknown origin) expressed in mouse BaF3 cells assessed as reduction in BCR-ABL T315I mutant protein levels at 3 to 30000 nM incubated for 32 hrs by Western blot analysis; format: cell-based

Row | DC50 [3] [nM] | SMILES | pEC50 [2] | other results
1 | > 10000 | Cc1ccc(NC(=O)c2ccc(CN3CCN(C(=O)CCCc4cn(CCOCCOCCOCCNc5cccc6c5C(=O)N(C5CCC(=O)NC5=O)C6=O)nn4)CC3)cc2)cc1Nc1nccc(-c2cccnc2)n1 (stereo not given) | – | –
2 | 625 | Cc1ccc(C(=O)Nc2ccc(CN3CCN(C(=O)CCCc4cn(CCNc5cccc6c5C(=O)N(C5CCC(=O)NC5=O)C6=O)nn4)CC3)c(C(F)(F)F)c2)cc1C#Cc1cnc2cccnn12 (stereo not given) | – | –
3 | 70 | Cc1ccc(C(=O)Nc2ccc(CN3CCN(C(=O)CCCc4cn(CCOCCOCCOCCOCCNc5cccc6c5C(=O)N(C5CCC(=O)NC5=O)C6=O)nn4)CC3)c(C(F)(F)F)c2)cc1C#Cc1cnc2cccnn12 (stereo not given) | – | –
4 | > 10000 | Cc1ccc(NC(=O)c2ccc(CN3CCN(C(=O)CCCc4cn(CCOCCNc5cccc6c5C(=O)N(C5CCC(=O)NC5=O)C6=O)nn4)CC3)cc2)cc1Nc1nccc(-c2cccnc2)n1 (stereo not given) | – | –
5 | 70 | Cc1ccc(C(=O)Nc2ccc(CN3CCN(C(=O)CCCc4cn(CCOCCOCCNc5cccc6c5C(=O)N(C5CCC(=O)NC5=O)C6=O)nn4)CC3)c(C(F)(F)F)c2)cc1C#Cc1cnc2cccnn12 (stereo not given) | – | –
6 | 20 | Cc1nc(Nc2ncc(C(=O)Nc3c(C)cccc3Cl)s2)cc(N2CCN(C(=O)CCCc3cn(CCOCCOCCNc4cccc5c4C(=O)N(C4CCC(=O)NC4=O)C5=O)nn3)CC2)n1 (stereo not given) | – | –
7 | 56 | Cc1nc(Nc2ncc(C(=O)Nc3c(C)cccc3Cl)s2)cc(N2CCN(C(=O)CCCc3cn(CCNc4cccc5c4C(=O)N(C4CCC(=O)NC4=O)C5=O)nn3)CC2)n1 (stereo not given) | – | –
8 | > 10000 | Cc1ccc(NC(=O)c2ccc(CN3CCN(C(=O)CCCc4cn(CCOCCOCCNc5cccc6c5C(=O)N(C5CCC(=O)NC5=O)C6=O)nn4)CC3)cc2)cc1Nc1nccc(-c2cccnc2)n1 (stereo not given) | – | –
9 | 56 | Cc1nc(Nc2ncc(C(=O)Nc3c(C)cccc3Cl)s2)cc(N2CCN(C(=O)CCCc3cn(CCOCCNc4cccc5c4C(=O)N(C4CCC(=O)NC4=O)C5=O)nn3)CC2)n1 (stereo not given) | – | –
10 | > 625 | O=C1CCC(N2C(=O)c3cccc(NCCn4cc(CCCC(=O)N[C@@H]5CCN(c6ncc(C(=O)Nc7ccc(OC(F)(F)Cl)cc7)cc6-c6cc[nH]n6)C5)nn4)c3C2=O)C(=O)N1 (stereo not given in full) | – | –
11 | 70 | Cc1ccc(C(=O)Nc2ccc(CN3CCN(C(=O)CCCc4cn(CCOCCNc5cccc6c5C(=O)N(C5CCC(=O)NC5=O)C6=O)nn4)CC3)c(C(F)(F)F)c2)cc1C#Cc1cnc2cccnn12 (stereo not given) | – | –
12 | > 10000 | Cc1ccc(NC(=O)c2ccc(CN3CCN(C(=O)CCCc4cn(CCOCCOCCOCCOCCNc5cccc6c5C(=O)N(C5CCC(=O)NC5=O)C6=O)nn4)CC3)cc2)cc1Nc1nccc(-c2cccnc2)n1 (stereo not given) | – | –
13 | > 10000 | Cc1ccc(NC(=O)c2ccc(CN3CCN(C(=O)CCCc4cn(CCNc5cccc6c5C(=O)N(C5CCC(=O)NC5=O)C6=O)nn4)CC3)cc2)cc1Nc1nccc(-c2cccnc2)n1 (stereo not given) | – | –
14 | 56 | Cc1nc(Nc2ncc(C(=O)Nc3c(C)cccc3Cl)s2)cc(N2CCN(C(=O)CCCc3cn(CCOCCOCCOCCNc4cccc5c4C(=O)N(C4CCC(=O)NC4=O)C5=O)nn3)CC2)n1 (stereo not given) | – | –
15 | 400 | O=C1CCC(N2C(=O)c3cccc(NCCOCCn4cc(CCCC(=O)N[C@@H]5CCN(c6ncc(C(=O)Nc7ccc(OC(F)(F)Cl)cc7)cc6-c6cc[nH]n6)C5)nn4)c3C2=O)C(=O)N1 (stereo not given in full) | – | –

Further lines, the compound ahead of its results:

Row | SMILES | DC50 [3] [nM] | pEC50 [2] | other results
16 | Cc1nc(Nc2ncc(C(=O)Nc3c(C)cccc3Cl)s2)cc(N2CCN(CCCCCCOCCOCCOCCCCCC(=O)Nc3cccc4c3C(=O)N(C3CCC(=O)NC3=O)C4=O)CC2)n1 (stereo not given) | – | – | Activity [1]: inactive; pIC50 (K562): 8.10; pEC50 (BaF3): < 5.00
17 | C#CCCCC(=O)N1CCN(c2cc(Nc3ncc(/C=C/c4cccc(O)c4)s3)nc(C)n2)CC1 | – | 5.89 | –
18 | Cc1cccc(/C=C/c2cnc(Nc3cc(N4CCN(C(=O)CCCc5cn(CCOCCOCCOCCOCCNc6cccc7c6C(=O)N(C6CCC(=O)NC6=O)C7=O)nn5)CC4)nc(C)n3)s2)c1 (stereo not given) | – | 5.21 | Activity [1]: Active; pEC50 (BaF3): < 5.00; Activity [4]: Active
19 | Cc1ccc(C(=O)Nc2ccc(CN3CCN(C)CC3)c(C(F)(F)F)c2)cc1C#Cc1cnc2cccnn12 [PONATINIB] | – | – | pIC50 (K562): 9.52; Activity (HUVEC [5]): Toxic; pEC50 (H9c2): 6.42; pEC50 (BaF3): 6.36; pEC50 (HUVEC [6]): 6.29
20 | C#CCCCC(=O)N1CCN(c2cc(Nc3ncc(/C=C/c4cccc(OC)c4)s3)nc(C)n2)CC1 | – | < 5.00 | –
21 | C#CCCCC(=O)N1CCN(c2cc(Nc3ncc(/C=C/c4ccc(F)cc4)s3)nc(C)n2)CC1 | – | 5.49 | –
22 | Cc1nc(Nc2ncc(C(=O)Nc3c(C)cccc3Cl)s2)cc(N2CCN(CCO)CC2)n1 [DASATINIB] | – | – | pIC50 (K562): 9.72; pEC50 (BaF3): < 5.00
23 | C#CCCCC(=O)N1CCN(c2cc(Nc3ncc(/C=C/c4ccc(F)c(F)c4)s3)nc(C)n2)CC1 | – | 6.24 | –
24 | Cc1ccc(NC(=O)c2ccc(CN3CCN(C)CC3)cc2)cc1Nc1nccc(-c2cccnc2)n1 [IMATINIB] | – | – | pIC50 (K562): 7.12
25 | O=C1CCC(N2C(=O)c3cccc(NCCOCCOCCOCCOCCn4cc(CCCC(=O)N[C@@H]5CCN(c6ncc(C(=O)Nc7ccc(OC(F)(F)Cl)cc7)cc6-c6cc[nH]n6)C5)nn4)c3C2=O)C(=O)N1 (stereo not given in full) | 500 | – | –
26 | C#CCCCC(=O)N1CCN(c2cc(Nc3ncc(/C=C/c4cccc(F)c4)s3)nc(C)n2)CC1 | – | 6.11 | –
27 | Cc1nc(Nc2ncc(C(=O)Nc3c(C)cccc3Cl)s2)cc(N2CCN(C(=O)CCCc3cn(CCOCCOCCOCCOCCNc4cccc5c4C(=O)N(C4CCC(=O)NC4=O)C5=O)nn3)CC2)n1 (stereo not given) | 10 | < 5.00 | Activity [1]: inactive; pIC50 (K562): 8.04; pEC50 (BaF3): < 5.00
28 | C#CCCCC(=O)N1CCN(c2cc(Nc3ncc(/C=C/c4cccc(C)c4)s3)nc(C)n2)CC1 | – | 6.35 | –
29 | C#CCCCC(=O)N1CCN(c2cc(Nc3ncc(C)s3)nc(C)n2)CC1 | – | < 5.00 | –
30 | O=C1CCC(N2C(=O)c3cccc(NCCOCCOCCOCCn4cc(CCCC(=O)N[C@@H]5CCN(c6ncc(C(=O)Nc7ccc(OC(F)(F)Cl)cc7)cc6-c6cc[nH]n6)C5)nn4)c3C2=O)C(=O)N1 (stereo not given in full) | 200 | 5.99 | pIC50 (K562): 6.92; Activity [7]: Active; pEC50 (BaF3): < 5.00
31 | O=C1CCC(N2C(=O)c3cccc(NCCOCCOCCn4cc(CCCC(=O)N[C@@H]5CCN(c6ncc(C(=O)Nc7ccc(OC(F)(F)Cl)cc7)cc6-c6cc[nH]n6)C5)nn4)c3C2=O)C(=O)N1 (stereo not given in full) | 300 | – | –
32 | C#CCCCC(=O)N1CCN(c2cc(Nc3ncc(/C=C/c4cc(F)cc(F)c4)s3)nc(C)n2)CC1 | – | 5.82 | –
